In US10092547B2, “Substituted aliphanes, cyclophanes, heteraphanes, heterophanes, hetero- heteraphanes and metallocenes useful for treating HCV infections” (priority 2011, dated 2018):

Assays:
HCV replicon (NS5A1b) = assay: microbe, parasite or virus in culture; format: cell-based; details: Hepatitis C virus, 72 h, HCV replicon-containing cells, three days
Method: (§1) Compounds claimed herein are tested for the ability to inhibit viral replication of the Hepatitis C replicon in cultured cells in which the HCV replicon construct has been incorporated. The HCV replicon system was described by Bartenschlager, et. al (Science, 285, pp. 110-113 (1999)). The replicon system is predictive of in vivo anti-HCV activity; compounds that are active in humans uniformly evidence activity in the replicon assay.
(§2) In this assay HCV replicon containing cells are treated with different concentrations of the test compound to ascertain the ability of the test compound to suppress replication of the HCV replicon. As a positive control, HCV replicon-containing cells are treated with different concentrations of interferon alpha, a known inhibitor of HCV replication. The replicon assay system includes Neomycin Phosphotransferase (NPT) as a component of the replicon itself in order to detect the transcription of replicon gene products in the host cell. Cells in which the HCV replicon is actively replicating have high levels of NPT; the level of NPT is proportional to HCV replication. […] The NPT level of each sample is measured using a captured ELISA.
(§3) A protocol for testing compounds for the ability to inhibit viral replication of the Hepatitis C replicon cultured cells in which the replicon construct has been incorporated, follows.
(§4) The HCV replicon contains, 5′-3′, the HCV-IRES, the neomycin phosphotransferase (neo) gene, the IRES of encephalomyocarditis virus, which directs translation of HCV sequences NS3 to NS5B, and the 3′-NTR. The sequence of the HCV replicon has been deposited in GenBank (Accession no. AJ242652).
(§5) The replicon is transfected into Huh-7 cells using standard methods such as electroporation.
(§6) The equipment and materials include, but are not limited to, Huh-7 HCV replicon-containing cells, maintenance media (DMEM (Dulbecco's modified Eagle media) supplemented with 10% FBS, L-glutamine, non-essential amino acids, penicillin (100 units/ml), streptomycin (100 micrograms/ml), and 500 micrograms/ml of Geneticin (G418), screening media (DMEM supplemented with 10% FBS, L-glutamine, non-essential amino acids, penicillin (100 units/ml) and streptomycin (100 micrograms/ml), 96 well tissue culture plates (flat bottom), 96 well plates (U bottom for drug dilution), Interferon alpha for positive control, fixation reagent (such as methanol: acetone), primary antibody (rabbit anti-NPTII), secondary antibody: Eu-N1 1, and enhancement solution.
(§7) HCV replicon-containing cells support high levels of viral RNA replicon replication when their density is suitable. Over-confluency causes decreased viral RNA replication. Therefore, cells must be kept growing in log phase in the presence of 500 micrograms/ml of G418. Generally, cells should be passed twice a week at 1:4-6 dilution. Cell maintenance is conducted as follows:
(§8) HCV replicon-containing cells are examined under a microscope to ensure that cells growing well. Cells are rinsed once with PBS and 2 ml trypsin is added. The cell/trypsin mixture is incubated at 37° C. in a CO2 incubator for 3-5 minutes. After incubation 10 ml of complete media is added to stop the trypsinization reaction. Cells are blown gently, put into a 15 ml tube, and spun at 1200 rpm for 4 minutes. The trypsin/medium solution is removed. Medium (5 ml) is added and the cells are mixed carefully. The cells are counted.
(§9) The cells are then seeded onto 96-well plates at a density of 6000-7500 cells/100 microliters/well (6-7.5×10^5 cells/10 ml/plate). The plates are then incubated at 37° C. in a 5% CO2 incubator.
(§10) Cells are examined under a microscope approximated 24 hours after seeding and prior to adding drugs. If counting and dilution were performed correctly, cells are 60-70% confluent and nearly all cells should attach and spread evenly in the well.
(§11) HCV replicon-containing cells are rinsed with once PBS once; 2 mls of trypsin are then added. Cells are incubated at 37° C. in a 5% CO2 incubator for 3-5 minutes. […]

[1] = system: HCV replicon (NS5A1b) in Huh-7 cells; assay: microbe, parasite or virus in culture; format: cell-based; details: Hepatitis C virus, 72 h; NS5A1b; HCV replicon-containing Huh-7 cells, three days; read-out: EC50 (μM) NS5A1b
Method: as §1, §2, §3, §4, §5, §6, §7, §8, §9, §10, §11

SMILES	EC50 (HCV replicon (NS5A1b))	EC50 [1]
COC(=O)N[C@H](C(=O)N1C[C@H](F)C[C@H]1c1nc2cc(-c3cc4ccc3CCc3ccc(c(-c5ccc6[nH]c([C@@H]7C[C@@H](F)CN7C(=O)[C@@H](NC(=O)OC)C(C)C)nc6c5)c3)CC4)ccc2[nH]1)C(C)C [Compound 87]	0.0184 µM	0.00653 µM
COC(=O)N[C@H](C(=O)N1C2CCC(C2)[C@H]1c1nc2cc(-c3cc4ccc3CCc3ccc(c(-c5ccc6[nH]c([C@@H]7C8CCC(C8)N7C(=O)[C@@H](NC(=O)OC)C(C)C)nc6c5)c3)CC4)ccc2[nH]1)C(C)C [Compound 42]	0.0044 µM	< 0.0032 µM
CC[C@H](C)[C@H](NC(=O)OC)C(=O)N1CCC[C@H]1c1nc2cc(-c3cc4ccc3CCc3ccc(c(-c5ccc6[nH]c([C@@H]7CCCN7C(=O)[C@@H](NC(=O)OC)[C@@H](C)CC)nc6c5)c3)CC4)ccc2[nH]1 [Compound 103]	0.47 µM	< 0.00317 µM
COC(=O)N[C@H](C(=O)N1CCC[C@H]1c1nc2cc(-c3cc4ccc3CCc3ccc(c(-c5ccc6[nH]c([C@@H]7CCCN7C(=O)[C@@H](NC(=O)OC)[C@@H](C)OC)nc6c5)c3)CC4)ccc2[nH]1)[C@@H](C)OC [Compound 109]	0.0118 µM	0.00883 µM
CC[C@H](C)[C@H](NC(=O)OC)C(=O)N1[C@H](c2nc3cc(-c4cc5ccc4CCc4ccc(c(-c6ccc7[nH]c([C@@H]8C[C@@H]9CCCC[C@@H]9N8C(=O)[C@@H](NC(=O)OC)[C@@H](C)CC)nc7c6)c4)CC5)ccc3[nH]2)C[C@@H]2CCCC[C@@H]21 [Compound 102]	0.0358 µM	0.0119 µM
COC(=O)N[C@@H](CCSC)C(=O)N1C[C@H](F)C[C@H]1c1nc2cc(-c3cc4ccc3CCc3ccc(c(-c5ccc6[nH]c([C@@H]7C[C@@H](F)CN7C(=O)[C@H](CCSC)NC(=O)OC)nc6c5)c3)CC4)ccc2[nH]1 [Compound 88]	0.0618 µM	0.00643 µM
COC(=O)N[C@H](C(=O)N1CCC[C@H]1c1nc2cc(-c3cc4ccc3CCc3ccc(c(-c5ccc6[nH]c([C@@H]7CCCN7C(=O)[C@@H](NC(=O)OC)c7ccccc7)nc6c5)c3)CC4)ccc2[nH]1)c1ccccc1 [Compound 49]	–	0.0102 µM
